Source: US20190388421A1, “NOVEL COMPOUNDS AND PHARMACEUTICAL COMPOSITIONS THEREOF FOR THE TREATMENT OF FIBROSIS” (Galapagos NV, priority 2016, published 2019)

What was measured:
[1] = molecular target: T1, human GPCR sphingosine 1-phosphate receptor 1 (S1PR1) (Homo sapiens, UniProt P21453); experiment: S1PR1 selectivity assay (Ca2+ flux, antagonist); format: cell-based; conditions: S1P1 antagonist EC50, CHO cells overexpressing human S1PR1 and Gq protein
T1 construct: host or cells: CHO
Method in brief: (§1)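 CHO cells stably overexpressing human S1PR1 or S1PR5 with Gq were preincubated with compound 15 min at 37 °C, then stimulated with S1P at EC80 (S1PR1) or an S1PR5-specific agonist (S1PR5). Ca2+ fluorescence was read for 3 min; 10-point 1/3 dilutions from 20 μM final, normalized to vehicle and EC80 trigger, gave EC50.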

HFL-1 cells [2] = experiment: IL8 assay (S1P induced IL-8 production); format: cell-based; conditions: Homo sapiens, HFL1; S1P (1 μM) induced IL-8, HFL-1 cells, without HSA
Method in brief: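 Serum-starved human fetal lung fibroblasts were preincubated with compound for 1 h at 37° C (10-point, 1/3 dilution, top 30 μM, 0.3% DMSO). S1P at 1 μM final was then added for 16–24 h, and IL-8 in the supernatant was measured by ELISA.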

HFL-1 cells [3] = experiment: IL8 assay in the presence of Human Serum Albumin; format: cell-based; conditions: HFL1, S1P (5 μM) induced IL-8, HFL-1 cells, with 2% HSA, read-out: HSA IL8 EC50
Method in brief: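 Cells serum-starved with 1.95% HSA, pre-treated 1 h with compound (10-point 1/3 dilution from 30 μM, 0.3% DMSO), then stimulated with 5 μM S1P for 16 to 24 h at 37° C. Supernatant IL-8 measured by ELISA.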

[4] = molecular target: T2, human GPCR sphingosine 1-phosphate receptor 5 (S1PR5) (Homo sapiens, UniProt Q9H228); experiment: S1PR5 selectivity assay (Ca2+ flux, antagonist, S1PR5 specific agonist trigger); format: cell-based; conditions: S1P5 antagonist EC50, CHO cells overexpressing human S1PR5 and Gq protein
T2 construct: host or cells: CHO
Method in brief: as §1

[5] = molecular target: T3, human GPCR sphingosine 1-phosphate receptor 2 (S1PR2) (Homo sapiens, UniProt O95136); experiment: S1P2 antagonist assay (Ca2+ flux, S1P at EC80); format: cell-based; conditions: CHO-S1PR2 cells, highest concentration 20 μM
T3 construct: host or cells: CHO
Method in brief: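 CHO cells stably overexpressing human S1PR2, serum-starved 1 h and loaded with Fluo8 dye, were read for 3 min after compound addition, then stimulated with S1P at EC80 after 15 min at 37 °C. Top concentration 20 μM in a 10-point 1/3 series; Ca2+ fluorescence ratio normalized to vehicle and S1P EC80, giving EC50.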

S1PR2 = molecular target: T4, S1PR2 (Homo sapiens, UniProt O95136); experiment: GTP-γS binding assay ([35S]GTPγS, S1P at EC80, S1PR2 membranes); format: biochemical; conditions: membranes from stable cell line over expressing S1PR2, read-out: S1PR2 EC
T4 construct: expressed in transfected cells
Method in brief: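 Compounds tested against S1P at its EC80 on membranes (2.5 μg/well) from a stable S1PR2-overexpressing line, pre-incubated with 1 μM GDP 15 min at 4 °C. Buffer: 20 mM Tris pH 7.5, 10 mM MgCl2, 100 mM NaCl, 0.1% fatty-acid-free BSA, 50 ug/ml saponin. Incubated 4 h at room temperature; [35S]GTPγS binding read by WGA SPA beads.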

T1 sequence (P21453 whole entry): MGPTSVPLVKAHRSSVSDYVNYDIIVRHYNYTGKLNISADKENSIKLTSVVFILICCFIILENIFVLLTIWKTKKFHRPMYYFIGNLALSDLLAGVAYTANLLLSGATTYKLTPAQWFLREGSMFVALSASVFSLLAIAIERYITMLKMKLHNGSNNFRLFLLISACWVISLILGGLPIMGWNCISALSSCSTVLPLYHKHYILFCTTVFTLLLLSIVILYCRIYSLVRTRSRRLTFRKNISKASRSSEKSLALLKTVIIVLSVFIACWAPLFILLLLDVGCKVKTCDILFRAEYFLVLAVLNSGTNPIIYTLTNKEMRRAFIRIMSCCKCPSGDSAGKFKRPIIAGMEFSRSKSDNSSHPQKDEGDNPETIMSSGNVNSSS
T2 sequence (Q9H228 whole entry): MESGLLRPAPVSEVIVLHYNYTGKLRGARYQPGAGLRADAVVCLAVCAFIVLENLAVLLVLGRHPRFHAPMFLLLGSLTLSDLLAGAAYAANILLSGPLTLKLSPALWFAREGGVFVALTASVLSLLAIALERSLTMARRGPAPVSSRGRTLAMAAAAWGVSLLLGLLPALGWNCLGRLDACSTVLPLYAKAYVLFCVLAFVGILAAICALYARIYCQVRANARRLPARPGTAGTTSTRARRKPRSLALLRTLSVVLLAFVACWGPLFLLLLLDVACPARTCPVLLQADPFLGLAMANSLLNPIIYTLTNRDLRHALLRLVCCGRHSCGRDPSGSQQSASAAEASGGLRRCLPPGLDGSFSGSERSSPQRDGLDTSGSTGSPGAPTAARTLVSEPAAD
T3 sequence (O95136 whole entry): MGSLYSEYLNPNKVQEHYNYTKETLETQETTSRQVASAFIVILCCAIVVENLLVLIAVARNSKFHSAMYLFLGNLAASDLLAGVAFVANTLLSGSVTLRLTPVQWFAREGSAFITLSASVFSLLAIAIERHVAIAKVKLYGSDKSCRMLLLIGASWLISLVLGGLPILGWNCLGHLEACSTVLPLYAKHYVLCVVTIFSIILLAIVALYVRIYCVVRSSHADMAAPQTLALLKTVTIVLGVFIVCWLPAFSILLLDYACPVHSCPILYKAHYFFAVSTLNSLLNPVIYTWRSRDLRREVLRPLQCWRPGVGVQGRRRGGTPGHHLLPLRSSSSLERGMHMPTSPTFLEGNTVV
T4 sequence (O95136 whole entry): as above

EC50 [1] [µM]	EC50 (HFL-1 cells [2]) [µM]	IC50 (HFL-1 cells [3]) [µM]	EC50 [4] [µM]	EC50 [5] [µM]	EC50 (S1PR2) [µM]	Structure (SMILES)
6.61	2.63	10	≥ 19.8	1.62	1.47	CN(C)Cc1cc(CNC(=O)Nc2cc(Cl)nc(OCC(F)F)c2)nnc1-c1cn(C)nc1C(F)(F)F [Compound 65, 1-[2-chloro-6-(2,2-difluoroethoxy)-4-pyridyl]-3-[[5-(dimethylamino-methyl)-6-[1-methyl-3-(trifluoromethyl)pyrazol-4-yl]pyridazin-3-yl]methyl]urea]
≥ 19.8	0.108	9.95	≥ 19.8	0.945	0.751	CCOc1cc(NC(=O)NCc2cc(C)c(-c3cnn(C)c3C)nn2)cc(C(F)(F)F)n1 [Compound 69]
6.61	0.002	0.056	6.61	0.009	0.025	CCOc1nc(C)cc(NC(=O)NCc2cc(C)c(-c3cn(C)nc3C(F)(F)F)nn2)c1Cl [Compound 71, 1-(3-chloro-2-ethoxy-6-methyl-4-pyridyl)-3-[[5-methyl-6-[1-methyl-3-(trifluoromethyl)pyrazol-4-yl]pyridazin-3-yl]methyl]urea]
16.5	0.002	0.047	11	0.009	0.025	CCOc1nc(C)cc(NC(=O)NCc2cc(C)c(-c3cn(C)nc3C(F)(F)F)nn2)c1C [Compound 72, 1-(2-ethoxy-3,6-dimethyl-4-pyridyl)-3-[[5-methyl-6-[1-methyl-3-(trifluoromethyl)pyrazol-4-yl]pyridazin-3-yl]methyl]urea]
13	0.015	0.118	≥ 19.8	0.022	0.081	Cc1cc(NC(=O)NCc2cc(C)c(-c3cn(C)nc3C(F)(F)F)nn2)c(C)c(OCC(F)F)n1 [Compound 74, 1-[2-(2,2-difluoroethoxy)-3,6-dimethyl-4-pyridyl]-3-[[5-methyl-6-[1-methyl-3-(trifluoromethyl)pyrazol-4-yl]pyridazin-3-yl]methyl]urea]
≥ 19.8	0.038	0.223	2.89	0.059	0.282	Cc1cc(NC(=O)NCc2cc(C)c(-c3cn(C)nc3C(F)(F)F)nn2)cc(OCC(F)F)n1 [Compound 75, 1-[2-(2,2-difluoroethoxy)-6-methyl-4-pyridyl]-3-[[5-methyl-6-[1-methyl-3-(trifluoromethyl)pyrazol-4-yl]pyridazin-3-yl]methyl]urea]
13.2	0.008	0.111	6.61	0.017	0.062	CCOc1cc(N/C(=N/C#N)NCc2cc(C)c(-c3cn(C)nc3C(F)(F)F)nn2)cc(C(F)(F)F)n1 [Compound 76, 2-cyano-1-[2-ethoxy-6-(trifluoromethyl)-4-pyridyl]-3-[[5-methyl-6-[1-methyl-3-(trifluoromethyl)pyrazol-4-yl]pyridazin-3-yl]methyl]guanidine]
≥ 19.8	1.09	1.25	≥ 19.8	0.106	0.863	CCOc1nc(C)cc(N/C(=N/C#N)NCc2cc(C)c(-c3cn(C)nc3C(F)(F)F)nn2)c1C [Compound 78, 2-cyano-1-(2-ethoxy-3,6-dimethyl-4-pyridyl)-3-[[5-methyl-6-[1-methyl-3-(trifluoromethyl)pyrazol-4-yl]pyridazin-3-yl]methyl]guanidine]
≥ 19.8	0.439	7.04	≥ 19.8	0.546	2.13	Cc1cc(NC(=NC#N)NCc2cc(C)c(-c3cn(C)nc3C(F)(F)F)nn2)c(C)c(OCC(F)F)n1 [Compound 79, 2-cyano-1-[2-(2,2-difluoroethoxy)-3,6-dimethyl-4-pyridyl]-3-[[5-methyl-6-[1-methyl-3-(trifluoromethyl)pyrazol-4-yl]pyridazin-3-yl]methyl]guanidine]
≥ 19.8	0.003	0.239	6.61	0.013	0.045	CCOc1nc(C(F)(F)F)cc(N/C(=N/C#N)NCc2cc(C)c(-c3cn(C)nc3C(F)(F)F)nn2)c1C [Compound 80, 2-cyano-1-[2-ethoxy-3-methyl-6-(trifluoromethyl)-4-pyridyl]-3-[[5-methyl-6-[1-methyl-3-(trifluoromethyl)pyrazol-4-yl]pyridazin-3-yl]methyl]guanidine]
6.61	0.032	10	3.77	0.006	0.197	CCOc1cc(NC(=O)NCc2cc(C)c(N3CCC(F)(F)C3)nn2)cc(Cl)n1 [Compound 81, 1-(2-Chloro-6-ethoxy-pyridin-4-yl)-3-[6-(3,3-difluoro-pyrrolidin-1-yl)-5-methyl-pyridazin-3-ylmethyl]-urea]
6.61	0.0535	0.731	0.341	0.006	0.156	CCOc1cc(NC(=O)NCc2cc(C)c(N3CC(C)OC(C)C3)nn2)cc(Cl)n1 (stereo not drawn) [Compound 82, 1-(2-Chloro-6-ethoxy-pyridin-4-yl)-3-[6-(2,6-dimethyl-morpholin-4-yl)-5-methyl-pyridazin-3-ylmethyl]-urea]
1.4	0.082	2.17	0.249	0.042	0.331	CCOc1cc(NC(=O)NCc2cc(C)c(N3CC(C)OC(C)C3)nn2)cc(C(F)(F)F)n1 (stereo not drawn) [Compound 87, 1-[[6-(2,6-dimethyl-morpholin-4-yl)-5-methyl-pyridazin-3-yl]methyl]-3-[2-ethoxy-6-(trifluoromethyl)-4-pyridyl]urea]
3.8	0.033	1.58	0.839	0.034	0.422	Cc1cc(CNC(=O)Nc2cc(Cl)nc(OCC(F)F)c2)nnc1N1CCOC(C(F)(F)F)C1 (stereo not drawn) [Compound 89, 1-[2-chloro-6-(2,2-difluoroethoxy)-4-pyridyl]-3-[[5-methyl-6-[2-(trifluoromethyl)morpholin-4-yl]pyridazin-3-yl]methyl]urea]
6.61	0.244	30	2.09	0.452	1.17	Cc1cc(CNC(=O)Nc2cc(Cl)nc(OCC(F)F)c2)nnc1N1CCC(F)(CO)C1 (stereo not drawn) [Compound 90, 1-[2-chloro-6-(2,2-difluoroethoxy)-4-pyridyl]-3-[[6-[3-fluoro-3-(hydroxymethyl)pyrrolidin-1-yl]-5-methyl-pyridazin-3-yl]methyl]urea]
≥ 19.8	1.25	2.84	≥ 19.8	0.529	0.919	Cc1cc(CNC(=O)Nc2cc(Cl)nc(OCC(F)F)c2)nnc1N1CCC(S(C)(=O)=O)C1 (stereo not drawn) [Compound 91, 1-[2-chloro-6-(2,2-difluoroethoxy)-4-pyridyl]-3-[[5-methyl-6-(3-methylsulfonyl-pyrrolidin-1-yl)pyridazin-3-yl]methyl]urea]
